Experimental data reported in patent US20080234291A1, “Mitratapide Oral Solution” (priority 2004, published 2008).
Converted amounts (≈) assume the structure as drawn.

Tests used:
[1] = solubility of mitratapide in different pharmaceutical solvents; assay type: physicochemical; settings: about 22° C.
[2] = solubility of mitratapide in water; assay type: physicochemical
Method: Since mitratapide has a solubility of less than 0.5 μg/ml in water, which can be increased to 0.4 mg/ml at a pH of 1.2, the presence of a solubilizing agent is necessary for the preparation of aqueous solutions. Hydroxypropyl-β-cyclodextrin (HP-β-CD) is a suitable solubilizing agent with which mitratapide forms higher order water soluble complexes. In order to obtain an aqueous solution comprising mitratapide with a concentration of 5 mg/ml it is necessary to use HP-β-CD in an amount of 250 mg/ml and adjusting the pH to 4. Furthermore it is necessary to add an antimicrobial preservative to these aqueous HP-β-CD solutions to protect them against microbial spoilage during manufacture or use. The addition of benzoic acid, a well known antimicrobial preservative for acidic aqueous solutions having a pH ≦4.5, however caused a precipitation of mitratapide probably due to a competition between mitratapide and benzoic acid for inclusion into the HP-β-CD cavity. To compensate, the HP-β-CD concentration had to be increased from 250 mg/ml to 400 mg/ml to solubilize mitratapide at a concentration of 5 mg/ml. […]

solubility ([1]; caprylic/capric/linoleic acid triglyceride (Miglyol 818), oil or lipid, caprylidcapridlinoleic acid triglyceride (Miglyol 818 ®)): < 5000 µg/mL | solubility ([1]; oil or lipid, apricot Kernel oil PEG-6 complex (Labrafil 1944CS ®)): < 5000 µg/mL | solubility ([1]; oil or lipid, caprylic/capric acid triglyceride (Miglyol 812 ®)): < 5000 µg/mL | solubility ([1]; oil or lipid, caprylic/capric diester of propylene glycol): < 5000 µg/mL | solubility ([1]; oil or lipid, caprylic/capric/succinic acid triglyceride (Miglyol 829 ®)): < 5000 µg/mL | solubility ([1]; oil or lipid, caprylocaproyl-8 glyceride (Labrasol ®)): > 5000 µg/mL | solubility ([1]; oil or lipid, corn oil PEG-6 complex (Labrafil 2125CS ®)): < 5000 µg/mL | solubility ([1]; oil or lipid, sesame oil): < 50 µg/mL | solubility ([1]; organic solvent or mixture, diethylene glycol monoethyl ether (Transcutol ®)): > 5000 µg/mL | solubility ([1]; organic solvent or mixture, dimethyl isosorbide (2,5-di-O-methyl-1,4:3,6-dianhydro D-glucitol)): > 5000 µg/mL | solubility ([1]; propylene glycol monolaurate (Lauroglycol), oil or lipid, Dropylene glycol monolaurate (Lauroglycol ®)): > 5000 µg/mL | solubility ([2]; water at pH 1.2, pH 1.2, simulated gastric fluid, pH of 1.2, read-out: solubility in water at pH 1.2): 400 µg/mL (≈ 0.558 mM) | solubility ([2]; water, read-out: solubility in water): < 0.5 µg/mL
SMILES: CCC(C)n1ncn(-c2ccc(N3CCN(c4ccc(OCC5COC(CSc6nncn6C)(c6ccc(Cl)cc6)O5)cc4)CC3)cc2)c1=O (stereo not drawn) [mitratapide, (−)-[2S-[2α,4α(S*)]]-4-[4-[4-[4-[[2-(4-chlorophenyl)-2-[[(4-methyl-4H-1,2,4-triazol-3-yl)thio]methy]-1,3-dioxolan-4-yl]methoxy]pheny]-1-piperazinyl]phenyl]-2,4-dihydro-2-(1-methylpropyl)-3H-1,2,4-triazol-3-one]
